The record followed here is the supplement of paper PMC8837787.

For this test, the system named is Saccharomyces cerevisiae ABC16-Green Monster. The following applies: 18 h; 30 °C; YPD. A digest of the protocol:
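Drug-sensitive S. cerevisiae ABC16-Green Monster cells were grown to log phase in YPD and dispensed at 200 µl per well into 96-well plates. Cultures were treated in biological duplicate with eight 1:2 compound dilutions (final 0.1–150 μM), alongside untreated cultures, for 18 h at 30 °C, and OD600 was read at 0 h and 18 h. IC50 was obtained by variable-slope nonlinear regression of log(inhibitor) versus response in GraphPad Prism, using background-subtracted readings.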

Take `COc1ccccc1C(C)NCC(=O)Nc1cc(C(F)(F)F)ccc1Cl` (stereo not drawn): the IC50 growth inhibition is 32.4 µM. `OC(c1cc(C(F)(F)F)nc2c(C(F)(F)F)cccc12)C1CCCCN1` (stereo not drawn) [Mefloquine]: the IC50 growth inhibition stood at 29.9 µM. Molecule `Cc1cc(C(=O)Cn2cnc3ccccc3c2=O)c(C)n1-c1ccccc1` had an IC50 growth inhibition of 61 µM. Molecule `O=C1NCN(c2ccccc2)C12CCN(CCCC(c1ccc(F)cc1)c1ccc(F)cc1)CC2` [Fluspirilene] yielded an IC50 growth inhibition of 23.3 µM. Then `COc1cc(C)c2c(Oc3cccc(C(F)(F)F)c3)c(OC)cc(NC(C)CCCN)c2n1` (stereo not drawn) [Tafenoquine], with 101 µM; and `C=CCc1c(C)nc2c(-c3ccccc3)cnn2c1N1CCN(CCO)CC1`, with 62.8 µM. In turn, `Cc1nc([P+](c2ccccc2)(c2ccccc2)c2ccccc2)c(N2CCCCC2)o1` [GNF-Pf-445] showed an IC50 growth inhibition of 9.44 µM. Turning to `COc1cc(-c2cc(-c3ccc(S(C)(=O)=O)cc3)cnc2N)ccc1O`, the IC50 growth inhibition came to 22 µM. Next, `CC[P](CC)(CC)=[Au][S][C@H]1O[C@@H](COC(C)=O)[C@H](OC(C)=O)[C@@H](OC(C)=O)[C@@H]1OC(C)=O`: 28.2 µM; `CC1COC(Cn2cncn2)(c2ccc(Oc3ccc(Cl)cc3)cc2Cl)O1` (stereo not drawn): 39 µM; `OC1=C2C(=Nc3ccccc3SC2c2cccs2)c2ccccc21` (stereo not drawn) [GNF-Pf-5669]: over 150 µM.

Consider `NC(=O)NO` [Hydroxyurea], for which the IC50 growth inhibition is over 75 µM. Consider `Cl.c1ccc(C2CCCC2NC2=NCCCCCCCCCCC2)cc1` (stereo not drawn) [MDL-12], for which the IC50 growth inhibition is 54.6 µM. Consider `O=C(Nc1ccc(N2CCNCC2)cc1)c1ccn2ncc(-c3cccc(Cl)c3)c2n1`, for which the IC50 growth inhibition was determined as 8 µM.

Molecule `COC1CC2CCC(C)C(O)(O2)C(=O)C(=O)N2CCCCC2C(=O)OC(C(C)CC2CCC(O)C(OC)C2)CC(=O)C(C)C=C(C)C(O)C(OC)C(=O)C(C)CC(C)C=CC=CC=C1C` (stereo not drawn) [Rapamycin] showed an IC50 growth inhibition of 0.727 µM. Molecule `Brc1cncc(-c2cc(NCCCn3ccnc3)nc(-c3ccccc3)n2)c1` came in with an IC50 growth inhibition of 23.9 µM.

The molecule `CCN1C(=Cc2cc(C)[n+](CCCN3CCOCC3)c(C)c2)Sc2ccccc21` displayed an IC50 growth inhibition of 55.3 µM.

For the molecule `Cc1cc(C(=O)NNC(=O)c2c(C)nc3ccccn23)c2nc3n(c2n1)CCCCC3`, the IC50 growth inhibition was 41.8 µM. Turning to `OC(CNCC1CCCO1)Cn1c2ccc(Cl)cc2c2cc(Cl)ccc21` (stereo not drawn), the IC50 growth inhibition is 4.91 µM.

As to `COc1ccc(Nc2nc(NCc3ccccc3)c3ccccc3n2)cc1`, the IC50 growth inhibition was 7.72 µM. As to `Cn1c(N)c(C(=O)CSc2nnc(-c3ccccc3)c(-c3ccccc3)n2)c(=O)n(C)c1=O`, the IC50 growth inhibition was found to be 22.9 µM. As for `O=C1N(Cc2cc3ccccc3s2)CC2CN(Cc3ccccc3)CCN12` (stereo not drawn), the IC50 growth inhibition amounted to 30.2 µM. Regarding `Cc1cc(F)c(C(=O)Nc2cccc(-c3nncn3C(C)C)n2)cc1-n1cnc(C2CC2)c1` [GS-4997], the IC50 growth inhibition was over 75 µM. With `CC(c1ncncc1F)C(O)(Cn1cncn1)c1ccc(F)cc1F` (stereo not drawn) [Voriconazole], the IC50 growth inhibition was determined as 0.18 µM. As to `CCCCCCCCCCCCCCCCOP(=O)([O-])OCC[N+](C)(C)C` [Miltefosine], the IC50 growth inhibition was determined as 9.3 µM. Next, `CC(=O)N(C1=C(N2CCOCC2)C(=O)c2ccccc2C1=O)c1cccc(Cl)c1` [GNF-Pf-2288]: 41.7 µM. As to `O=C1Nc2ccc(F)cc2/C1=N/NC(=S)NC1CC2C=CC1C2` (stereo not drawn), the IC50 growth inhibition came out at 55.9 µM. Next, `Clc1ccc(Cl)c(CO[C@H]2CCCC[C@@H]2n2ccnc2)c1`: 68.6 µM; `Cc1ccc(S(=O)(=O)n2cc(-c3ccnc(N)c3)c3cc(Br)cnc32)cc1`: 6.17 µM; `O=C(Nc1c(O)cccc1-c1nc2c(C(=O)O)cccc2o1)c1cc(-c2ccccc2)on1`: 38.7 µM. Next, `CS(=O)(=O)Nc1nc(-c2ccccn2)nc2scc(-c3ccccc3)c12`: 13.8 µM. In turn, `O=C1NC(=O)C(c2cnc3ccccn23)=C1c1cn2c3c(cc(F)cc13)CN(C(=O)N1CCCCC1)CC2` displayed an IC50 growth inhibition of over 75 µM. In turn, `CCOc1cccc2sc(N(Cc3cccnc3)C(=O)C3CCCCC3)nc12` displayed an IC50 growth inhibition of 25.7 µM. Turning to `Fc1ccc2[nH]c3c(N4CCN(C(c5ccccc5)c5ccccc5)CC4)ncnc3c2c1` [GNF-Pf-2775], the IC50 growth inhibition came out at 0.723 µM.

For `CC(=O)c1ccc(-c2ccc(C(=O)N3CCCc4ccccc43)o2)cc1`, the IC50 growth inhibition is 52.4 µM. In turn, `Nc1ncnc2c1ncn2CC(O)C(O)C(=O)O` (stereo not drawn) [Eritadenine] gave an IC50 growth inhibition of over 75 µM. Molecule `N=C(N)c1ccc(OCCCCCOc2ccc(C(=N)N)cc2)cc1` showed an IC50 growth inhibition of 83.8 µM. Next, `CCCCCC(=O)N[C@H](C(=O)N[C@@H](CCS(C)(=O)=O)C(=O)N[C@@H](CC(C)C)C(=O)[C@@]1(C)CO1)C(C)C` [Carmaphycin B]: 24.8 µM; `N.N.O=C([O-])C1(C(=O)[O-])CCC1.[Pt+2]` [Carboplatin]: over 75 µM; `CCCCCN(C)CCC(O)(P(=O)([O-])O)P(=O)(O)O.[Na+]` [Ibandronate]: over 75 µM. For the molecule `CCC1(O)CC2CN(CCc3c([nH]c4ccccc34)C(C(=O)OC)(c3cc4c(cc3OC)N(C)C3C(O)(C(=O)OC)C(OC(C)=O)C5(CC)C=CCN6CCC43C65)C2)C1` (stereo not drawn) [Vinblastine], the IC50 growth inhibition is over 75 µM. With `Cc1noc(C)c1C(=O)N1CCCC(c2[nH]c3c(C)cccc3c2-c2ccncc2)C1` (stereo not drawn), the IC50 growth inhibition was found to be 20.8 µM. Then `OCCc1ccc(Nc2nccc(-c3nnc4ccccn34)n2)cc1`, with 43.9 µM; and `COc1ccc(Nc2nc(Nc3ccc(C)cc3)nc(Sc3nc4ccccc4[nH]3)n2)cc1` [CBR499], with 2.31 µM. Next, `Cc1nn(C)cc1C(C)Nc1nncc(-c2ccc(C(F)(F)F)cc2)n1` (stereo not drawn): 44.9 µM; `CN1CCC(NCc2cccc(-c3ccc(S(=O)(=O)NCc4ccccc4)cc3)c2)CC1`: 50.8 µM; `COCCNc1cc(C(C)C)nc2c(-c3ccccc3)cnn12`: 52.6 µM. In turn, `c1csc(-c2cnc3sc(NCC4CCOCC4)nn23)c1` gave an IC50 growth inhibition of 2.98 µM.

In the case of `CCCn1c(NC(=O)c2ccc3ccccc3n2)nc2ccccc21`, the IC50 growth inhibition amounted to 40 µM. On to `CN(C)CCCN1c2ccccc2CCc2ccc(Cl)cc21.Cl` [Clomipramine], for which the IC50 growth inhibition was 18.3 µM.

Molecule `CC1CCCC=CC2CC(O)CC2C(O)C=CC(=O)O1` (stereo not drawn) [Brefeldin A] showed an IC50 growth inhibition of 31.9 µM.

`OC1=C2C(=Nc3ccccc3SC2c2ccccc2)c2ccccc21` (stereo not drawn) [GNF-Pf-4583] yielded an IC50 growth inhibition of 2.54 µM. Consider `Nc1ccc2ncnc(Nc3ccc(OCc4cccc(F)c4)c(Cl)c3)c2c1`, for which the IC50 growth inhibition was determined as 18.7 µM. Consider `OCCNc1nc(Nc2ccc(Cl)c(Cl)c2)nc2ccccc12`, for which the IC50 growth inhibition came out at 14 µM. On to `CCN(CC)S(=O)(=O)c1ccc(C(=O)Nc2cc(C)nn2-c2nc(C)c(C)c(=O)[nH]2)cc1`, for which the IC50 growth inhibition came out at 68.4 µM.

On to `COc1cc(CNC(=O)CCCCC=CC(C)C)ccc1O` [Capsaicin], for which the IC50 growth inhibition was over 150 µM. In turn, `COC(=O)C1=C(C)NC(C)=C(C(=O)OC(C)C)C1c1cccc2nonc12` (stereo not drawn) showed an IC50 growth inhibition of 65.4 µM. As to `N#C/C(=N\Nc1cc(C(F)(F)F)cc(C(F)(F)F)c1)S(=O)(=O)c1cccs1`, the IC50 growth inhibition was 99 µM. Take `C=CCn1c(C)cc(C(=O)CSc2nc3ccccc3[nH]2)c1C`: the IC50 growth inhibition was 4.24 µM.

`N#C/C(=C\c1cn(Cc2ccccc2)nc1-c1cccnc1)c1nc2ccccc2[nH]1`: the IC50 growth inhibition turned out to be 138 µM. Regarding `Cc1cccc2sc(C(=O)NCc3cccc(NS(N)(=O)=O)c3)c(Cl)c12`, the IC50 growth inhibition came out at 70.6 µM. Then `CCS(=O)(=O)c1ncc(Cl)c(C(=O)Nc2cc(Cl)cc(Cl)c2)n1`, with 6.66 µM; and `Cc1cc(C(=O)NCCc2cccc(F)c2)c(C)n1C(C)C`, with 20.7 µM; and `O=C(NC1CC1)c1ccc(N2CCOc3ccc(Cl)cc32)s1`, with 32.6 µM. Regarding `CCOC(=O)NC(=O)c1ccsc1NC(=O)c1nc2ccccc2s1`, the IC50 growth inhibition amounted to 34.6 µM. For `CN(C)c1cc(NC(=O)Nc2ccccc2)c2ccccc2n1`, the IC50 growth inhibition came to 39.4 µM.

Consider `COC1OC2OC3(C)CCC4C(C)CCC(C1C)C24OO3` (stereo not drawn) [Artemether], for which the IC50 growth inhibition amounted to 70.6 µM. Take `Cc1cc(Nc2ccc(OCc3ccccc3)cc2)nc2cc(O)ccc12`: the IC50 growth inhibition came to 2.38 µM. Then `CN(C(=O)c1cc2c(-c3cncnc3)cccc2[nH]1)c1ccccc1`, with 26.3 µM; and `CNC(=O)c1cc(Oc2ccc(NC(=O)Nc3ccc(Cl)c(C(F)(F)F)c3)cc2)ccn1` [Sorafenib], with 4.27 µM; and `CCOC(=O)c1c(NC(=O)c2c(F)c(F)c(F)c(F)c2F)sc(C(N)=O)c1C`, with 47.8 µM.

`Cc1nn(C(=O)Nc2cccc(C(F)(F)F)c2)c(C)c1Sc1ncccn1` gave an IC50 growth inhibition of 45 µM.

For the molecule `CC(=O)N(C1=C(N2CCOCC2)C(=O)c2ccccc2C1=O)c1ccc(I)cc1` [GNF-Pf-3703], the IC50 growth inhibition is 7.31 µM. `NC(CC(=O)c1ccc(Cl)cc1Cl)C(Cl)(Cl)Cl` (stereo not drawn) displayed an IC50 growth inhibition of 46.4 µM. Then `CC(C)(C)C(O)C(Oc1ccc(-c2ccccc2)cc1)n1cncn1` (stereo not drawn), with 70 µM. Molecule `CCC1(O)C(=O)OCc2c1cc1n(c2=O)Cc2cc3ccccc3nc2-1` (stereo not drawn) [Camptothecin] returned an IC50 growth inhibition of 1.61 µM. Then `O=c1c2ccccc2[nH]c2ccc(I)cc12` [GNF-Pf-4577], with over 150 µM; and `OCCNc1nc(Oc2ccc(-c3ccccc3)cc2)nc2ccccc12`, with 21.7 µM.
